{"source": "patent US11906529B1", "about": "“Methods for treatment and diagnosis of endometriosis” (Marshall University Research Corporation, priority 2018, dated 2024)", "key": {"[1]": {"test_system": "EOOF5 cells", "assay": "xCELLigence cell index of primary endometrial cells treated with PF and/or drug", "type": "cell-based, human", "conditions": "for cell growth (% CI), PF and drug compared to PF alone: EOOF5 cells; for cell growth (% CI), PF and drug compared to PF alone / cell viability and growth in the presence of PF: 1% PF; for cell viability and growth in the presence of PF: human endometrial cells", "experimental": "(§1) Cell treatment. Ishikawa cells (human endometrial cell line) or EOOF5 cells (primary endometrial cells from a patient without endometriosis, gift from Emory University) were cultured in T75 flasks in complete media (DMEM, 10% FCS, 1% P/S). Cells were treated with 1% PF (control and endo patients) in charcoal stripped media containing 0.1% FCS, for 48 hours. A subset of cells were also treated with GSK126 or EPZ-6438 (FIG. 15), at various concentrations for 24 hours. Cells were collected post-treatment for RNA (PCR) and protein analysis (Western blotting).\nxCELLigence. EOOF5 cells (primary endometrial cells) was plated at 10,000 cells per well using xCELLigence technology. Plates that have gold electrodes attached to the bottom were utilized. The electrodes produce electrons, which interact with the solution, completing a circuit. As the number of adhered cells in the plate increases, the more this interferes with circuit completion. Cells were treated with either 1% control or endo PF alone or treated with PF for 24 hours before being treated with either 1 μM GSK, 2.5 μM GSK, or 2.5 μM EPZ. Cells were also treated with drug alone. % Cell Impedance (CI) was calculated compared to CF media."}, "[2]": {"test_system": "EZH2 expression", "assay": "mRNA analysis on Ishikawa cells treated with PF and/or GSK 126", "type": "cell-based, human", "conditions": "depending on order of drug treatment, compared with control or endo PF alone", "experimental": "as §1"}, "[3]": {"test_system": "Ishikawa cells", "assay": "Inhibitor study using MTT analysis on Ishikawa cells in the presence of PF", "type": "cell-based, human", "conditions": "1% PF", "experimental": "It was more than 1000 fold selective for EZH2 over other histone methyltransferases, including both SET-domain-containing and non-SET domain-containing methyltransferases, as shown schematically in FIG. 6A. […] In this regard, an inhibitor study using MTT analysis was conducted according to the schematic of FIG. 7A. Various doses of GSK126 were tested on Ishikawa cells in the presence of PF: 100 nM, 500 nM, 1 μM, 2.5 μM, 5 μM, and 10 μM in DMSO. Cell growth and viability of cells was evaluated rather than just EZH2 expression. (FIGS. 7B-7C) 1 mM and 0.1 mM solutions of GSK126 were also created from serial dilutions of 10 mM GSK126. […] It was somewhat unclear, however, whether that the effect of the drug as the volume of the vehicle (DMSO) could have impacted the results.\nas §1"}, "[4]": {"test_system": "global trimethylation", "conditions": "reactivates silenced PRC2 genes; cited from earlier work"}}, "data": [{"smiles": "CCN(c1cc(-c2ccc(CN3CCOCC3)cc2)cc(C(=O)NCc2c(C)cc(C)[nH]c2=O)c1C)C1CCOCC1", "note": "[EPZ-6438]", "values": [{"measurement": "cell growth (% CI), PF and drug compared to PF alone", "setting": "[1]", "value": "decrease in cell growth"}, {"measurement": "cell viability and growth in the presence of PF", "setting": "[1]", "value": "concentration dependent decrease"}]}, {"smiles": "CC[C@H](C)n1cc(C)c2c(C(=O)NCc3c(C)cc(C)[nH]c3=O)cc(-c3ccc(N4CCNCC4)nc3)cc21", "note": "[GSK 126]", "values": [{"measurement": "EZH2 mRNA expression", "setting": "[2]", "value": "bidirectional effect"}, {"measurement": "cell growth (% CI), drug added after PF pretreatment", "setting": "[1]; 1% PF first for 24 hours followed by drug for 48 hours", "value": "able to lower the cell growth induced by PF"}, {"measurement": "cell growth (% CI), PF and drug compared to PF alone", "setting": "[1]", "value": "decrease in cell growth"}, {"measurement": "% CI, drug first followed by PF", "setting": "[1]; GSK first for 24 hours, then 1% PF for another 48 hours", "value": "significant decrease in % CI"}, {"measurement": "cell viability and growth in the presence of PF", "setting": "[1]", "value": "concentration dependent decrease"}, {"measurement": "cell viability", "setting": "[3]; 500 nM, vehicle (DMSO) volume could have impacted the results", "value": "dip in viability"}, {"measurement": "cell growth (proliferation)", "setting": "[3]; GSK126 100 nM-10 μM in DMSO", "value": "very little proliferation"}, {"measurement": "global H2K37 trimethylation levels", "setting": "[4]", "value": "inhibit global H2K37 trimethylation levels"}]}]}
